The values that follow come from article PMC12040169 (PLOS Biology, 2025).

Structures are written as SMILES.

The nature of the first data set: in vitro. To be noted: human, hela cells, % viability.
Consider `COc1cc(OC)cc(C(=O)N[C@@H]2CC[C@@]3(c4ccc(OC)c(OC)c4)CCN(C)[C@H]3C2)c1` [CBK074242T], for which the viability – broadly, a read-out of living cells in per cent, often relative to untreated cells – at 28.5 h, 10 µM was 115%.
For `COc1ccc(C(=O)N[C@@H]2CC[C@@]3(c4ccc(OC)c(OC)c4)CCN(C)[C@H]3C2)c(OC)c1` [CBK074247T], the viability at 28.5 h, 10 µM was found to be 91.7%.
Same read-out and setting: the same measure for `COc1ccc([C@@]23CC[C@@H](NC(=O)c4ccc5occc5c4)C[C@@H]2N(C)CC3)cc1OC` [CBK074253T]: 99%.
Regarding `O=C(c1cccc(C(F)(F)F)c1)N1CCCCCC1` [CBK074291], the viability at 28.5 h, 10 µM is 98.4%.
On the same count and under the same terms, the same measure for `COc1ccc([C@@]23CCN(C(=O)Nc4ccc(F)c(F)c4F)C[C@@H]2CN(C)C3)cc1OC` [CBK074305T]: 106%; for `Nc1ncc(Br)nc1N[C@@H](CO)c1ccccc1` [CBK074321]: 102%.
Still for that read-out and setting: in the case of `CCCc1[nH]nc(O)c1Cc1ccccc1CS(=O)(=O)c1ccccc1` [CBK074347] it was 87.8%; in that of `Oc1nc(CN2CCN(Cc3ccc4c(c3)OCO4)CC2)nc2ccccc12` [CBK074355], 110%; in that of `O=C(CNS(=O)(=O)c1ccc(Br)cc1)N1CCN(Cc2ccc3c(c2)OCO3)CC1` [CBK074358], 98.1%.
Same read-out and setting: in the case of `Cn1c(=O)c2c(nc(NCc3ccc4c(c3)OCO4)n2Cc2cccc(Cl)c2)n(C)c1=O` [CBK074359] it was 96.4%.
On to `CCCC(=O)N1CCN(Cc2ccc3c(c2)OCO3)CC1` [CBK074367], for which the viability at 28.5 h, 10 µM was determined as 92.7%.
As to `O=C(CCCN1C(=O)c2cccc3cccc(c23)C1=O)N1CCN(Cc2ccc3c(c2)OCO3)CC1` [CBK074370], the viability at 28.5 h, 10 µM turned out to be 72.6%.
The same measure, in the same setting: the same measure for `COc1ccccc1OCC(O)CN1CCN(C(=O)c2ccccc2)CC1` (stereo not drawn) [CBK074386C]: 111%.
Same read-out and setting: in the case of `Cc1cc(C(F)(F)F)nc2sc(C(=O)c3ccc4c(c3)OCO4)c(N)c12` [CBK074388] it was 94.5%.
Same read-out and setting: the same measure for `O=C(NC(NCc1ccc2c(c1)OCO2)(C(F)(F)F)C(F)(F)F)c1cccnc1` [CBK074397]: 78.8%; for `COc1ccc(CN2CCN(Cc3cccnc3)CC2)cc1OC` [CBK074409G]: 94.1%; for `COc1cccc(N2C(=O)CC(N3CCN(Cc4ccc5c(c4)OCO5)CC3)C2=O)c1` (stereo not drawn) [CBK074411]: 93.1%.
As for `O=C1c2cccc3cccc(c23)C(=O)N1CC1CCN(CC(O)COCC2COc3ccccc3O2)CC1` (stereo not drawn) [CBK074412C], the viability at 28.5 h, 10 µM amounted to 100%.
As for `COc1c(S(=O)(=O)N2CCN(Cc3ccc4c(c3)OCO4)CC2)ccc(Cl)c1Cl` [CBK074423], the viability at 28.5 h, 10 µM was 91.8%.
With `C=CCOc1c(CNc2cccc(C(=O)O)c2)cccc1OC` [CBK074432], the viability at 28.5 h, 10 µM amounted to 95.6%.
Still for that read-out and setting: the same measure for `COc1ccc(S(=O)(=O)N2CCN(Cc3ccc4c(c3)OCO4)CC2)c(Cl)c1Cl` [CBK074433]: 102%; for `O=C(/C=C/c1ccc(Br)cc1)N1CCN(Cc2ccc3c(c2)OCO3)CC1` [CBK074434]: 91.5%.
Turning to `CC(Oc1ccc(Cl)cc1Cl)C(=O)N1CCN(Cc2ccc3c(c2)OCO3)CC1` (stereo not drawn) [CBK074438], the viability at 28.5 h, 10 µM is 95.2%.
The same measure, in the same setting: the same measure for `COc1cccc(/C=N/N2C(=O)c3ccc([N+](=O)[O-])cc3NC2c2cccc(OC)c2O)c1O` (stereo not drawn) [CBK074439]: 91.3%; for `CCOc1cc2c(cc1OCC)C(c1ccc(OC)c(O)c1)NCC2` (stereo not drawn) [CBK074443C]: 88.7%.
Still for that read-out and setting: in the case of `N#CCC(=O)N1CCN(Cc2ccc3c(c2)OCO3)CC1` [CBK074447] it was 88.7%; in that of `COc1cc(CN2CCN(Cc3cccc4ccccc34)CC2)c([N+](=O)[O-])cc1OC` [CBK074450G], 106%.
Turning to `COc1ccc(NCc2cc(I)c(OCc3ccccc3)c(OC)c2)cc1` [CBK074452], the viability at 28.5 h, 10 µM stood at 106%.
Still for that read-out and setting: in the case of `COc1ccc(-c2csc(Nc3ccc(N)cc3)n2)cc1OC` [CBK074456] it was 83.4%; in that of `Cc1ccc(CNc2oc(COc3ccc(Br)cc3)nc2C#N)cc1` [CBK074467], 99.5%.
The same measure, in the same setting: the same measure for `C=CCOc1ccc(CNc2cccc(C(=O)O)c2)cc1OC` [CBK074468]: 98.5%.
On the same count and under the same terms, in the case of `COc1cc(CNc2ccc(N3CCCCC3)cc2)ccc1OCc1ccccc1F` [CBK074472] it was 95.5%.
With `COc1ccc(CNCc2cccc(OC)c2OC)cc1Br` [CBK074479], the viability at 28.5 h, 10 µM is 113%.
Still for that read-out and setting: the same measure for `COc1ccc(CN2CCN(S(C)(=O)=O)CC2)c(OC)c1OC` [CBK074491]: 102%.
On to `COc1cc(OC)c(OC)cc1CN1CCN(Cc2ccco2)CC1` [CBK074509G], for which the viability at 28.5 h, 10 µM turned out to be 92.9%.
Same read-out and setting: in the case of `COc1cc(CNc2ccc(N3CCOCC3)cc2)ccc1OCc1ccc(Cl)cc1Cl` [CBK074516] it was 93.1%; in that of `COC(=O)c1ccc(CN2CCN(CCN3C(=O)c4cccc5cccc(c45)C3=O)CC2)cc1` [CBK074518], 88.8%.
The same measure, in the same setting: the same measure for `COc1cc(CN2CCN(Cc3ccco3)CC2)cc(OC)c1OC` [CBK074520G]: 88.2%; for `COc1ccc(CN2CCN(C(=O)c3cccc(F)c3)CC2)c(OC)c1OC` [CBK074523]: 95.5%; for `CCOc1cccc(CNc2ccc(O)cc2)c1OCc1ccc(Cl)cc1Cl` [CBK074528]: 106%.
The same measure, in the same setting: in the case of `O=C1CC(N2CCN(Cc3ccc4c(c3)OCO4)CC2)C(=O)N1CCc1ccccc1` (stereo not drawn) [CBK074541] it was 93.7%; in that of `O=C1CC(N2CCN(Cc3ccc4c(c3)OCO4)CC2)C(=O)N1c1ccc(Cl)c(Cl)c1` (stereo not drawn) [CBK074549], 99.4%; in that of `O=C1CC(N2CCN(Cc3ccc4c(c3)OCO4)CC2)C(=O)N1c1cc(Cl)cc(Cl)c1` (stereo not drawn) [CBK074554], 94.5%.
With `COc1ccc(CCN2C(=O)CC(N3CCN(Cc4ccc5c(c4)OCO5)CC3)C2=O)cc1OC` (stereo not drawn) [CBK074555], the viability at 28.5 h, 10 µM came to 88%.
On the same count and under the same terms, the same measure for `O=[N+]([O-])c1ccc(CN2CCN(Cc3ccc4c(c3)OCO4)CC2)o1` [CBK074557]: 88.7%.
The same measure, in the same setting: the same measure for `CSc1ncc(CNCc2ccc3c(c2)OCO3)c(N)n1` [CBK074563]: 89.6%; for `COc1ccc(CNC(=O)c2sc3nc4c(c(C(F)(F)F)c3c2N)CCC4)cc1OC` [CBK074568]: 85.7%; for `O=C(O)c1ccc(N2C(=O)CC(N3CCN(Cc4ccc5c(c4)OCO5)CC3)C2=O)cc1` (stereo not drawn) [CBK074573]: 87.1%.
Consider `O=S(=O)(c1cccc(C(F)(F)F)c1)N1CCN(Cc2ccc3c(c2)OCO3)CC1` [CBK074594], for which the viability at 28.5 h, 10 µM came to 89.8%.
In the case of `O=S(=O)(c1c(F)cccc1F)N1CCN(Cc2ccc3c(c2)OCO3)CC1` [CBK074600], the viability at 28.5 h, 10 µM came to 91.5%.
On to `COc1cc(CN2CCN(C(=O)c3cccc(F)c3)CC2)cc(OC)c1O` [CBK074633], for which the viability at 28.5 h, 10 µM came out at 95.2%.
In the case of `OC(COc1ccc(OC(F)(F)F)cc1)CN1CCN(c2nc3ccc(Cl)cc3s2)CC1` (stereo not drawn) [CBK074639], the viability at 28.5 h, 10 µM was 122%.
On the same count and under the same terms, the same measure for `OC(CNC1CCN(Cc2ccccc2)CC1)COc1ccc2c(c1)OCO2` (stereo not drawn) [CBK074645]: 96.5%; for `O=[N+]([O-])c1ccc(OCC(O)CN2CCCN(c3nc4ccc(Cl)cc4s3)CC2)cc1` (stereo not drawn) [CBK074647]: 85.9%; for `O=C1CC2(CCCC2)C(=O)N1c1ccc(S(=O)(=O)NC2CCN(Cc3ccccc3)CC2)cc1Cl` [CBK074650]: 99.8%.
As to `O=C(NCCCN1CCN(Cc2ccccc2)CC1)c1cn2cc(C(F)(F)F)cc(Cl)c2n1` [CBK074654], the viability at 28.5 h, 10 µM stood at 89.3%.
With `COc1cc2c(cc1OC)C(C)N(Cc1cc(C)c(O)c(C)c1)CC2` (stereo not drawn) [CBK074659C], the viability at 28.5 h, 10 µM stood at 99.9%.
Same read-out and setting: in the case of `COc1ccc(CCN2CN=C(SCc3ccc(Cl)cc3)NC2)cc1OC` [CBK074665C] it was 95.3%; in that of `OC(COc1cccc(C(F)(F)F)c1)CN1CCN(c2nc(-c3ccccc3)ns2)CC1` (stereo not drawn) [CBK074678], 93%; in that of `O=C(CN1CCN(c2ccc([N+](=O)[O-])cn2)CC1)Nc1ccc2c(c1)OCO2` [CBK074679], 115%.
Regarding `OC(CSc1ccccc1)CN1CCN(C(c2ccccc2)c2ccccc2)CC1` (stereo not drawn) [CBK074683], the viability at 28.5 h, 10 µM was determined as 91.3%.
In the case of `OC(CSc1ccc(F)cc1)CN1CCN(c2ccc(C(F)(F)F)cn2)CC1` (stereo not drawn) [CBK074688], the viability at 28.5 h, 10 µM was determined as 91.2%.
On the same count and under the same terms, the same measure for `OC(CNCc1ccc2c(c1)OCO2)COc1ccc(SC(F)(F)F)cc1` (stereo not drawn) [CBK074691]: 120%; for `OC(COc1ccc(F)cc1)CN1CCN(c2nc(-c3ccccc3)ns2)CC1` (stereo not drawn) [CBK074698]: 91.8%.
Still for that read-out and setting: in the case of `O=C(CN1CCN(c2ccc(C(F)(F)F)cn2)CC1)c1ccccc1` [CBK074699] it was 111%; in that of `O=C(CN1CCN(c2ccc(C(F)(F)F)cn2)CC1)c1ccc2c(c1)OCCO2` [CBK074700], 98.3%.
Same read-out and setting: the same measure for `O=C(c1cccc(CN2CCN(c3nc(-c4ccccc4)ns3)CC2)c1)N1CCC(O)CC1` [CBK074709]: 110%; for `O=C(CN1CCN(CCCc2c[nH]c3ccc(F)cc23)CC1)N(c1ccccc1)C1CCCCC1` [CBK074710]: 92.1%; for `O=C(CN1CCC(NC(=O)c2ccccc2)CC1)Nc1ccccc1` [CBK074716]: 96.7%.
As to `O=C(c1c(F)cccc1Cl)N1CCN(Cc2ccc3c(c2)OCO3)CC1` [CBK074724], the viability at 28.5 h, 10 µM turned out to be 93.9%.
On to `O=C(c1sccc1Br)N1CCN(Cc2ccc3c(c2)OCO3)CC1` [CBK074730], for which the viability at 28.5 h, 10 µM was found to be 100%.
On to `CCCc1ccc(S(=O)(=O)N2CCN(Cc3ccc4c(c3)OCO4)CC2)cc1` [CBK074735], for which the viability at 28.5 h, 10 µM is 107%.
Same read-out and setting: the same measure for `OC(CSc1ccccc1)CN1CCN(Cc2ccc3c(c2)OCO3)CC1` (stereo not drawn) [CBK074761]: 87.2%; for `O=C(CNCc1ccc2c(c1)OCO2)NCc1ccc2c(c1)OCO2` [CBK074763]: 86.8%.

The data set is the same for the next values; noted with them: human, hela cells, % viability, bulk resorufin, single well.
`c1cc2c(cc1CCNCc1ccc3c(c1)OCO3)OCO2` [CBK074501G]: the viability at 28.5 h, 10 µM came out at 98.9%.
